B1: SmAQP (Schistosoma mansoni) (protein)
chain: MVSCSEKYAHKQHIVADRLRLTSSPLVRACLGEFMGSIILMIFGSGVLAQVILGDHGKHAHGTFISVSLGWGFAVYMAVMFSGQCGSGHCNPAVTLAAAVVGKLPFRRIPFYTFFQILGAFLGSLVVFALYREKIIEYAKLNDNGALLLNTTGGIFVTNPSASHLTCFLDQVMGTALLTAGAFAITDPNGWKIPDYLHPLHLAFLVYAIVGCFALNAGAALNPARDLGPRLMIFIFGWGNKAFSGANYFFWIPIVGPYIGAVIGGILYEMTIGIHLDRKSDFVVDVDYDDSHRDGKKLVAYSSP
notes: 304 aa membrane protein

Columns and labels:
SmAQP = molecular target: T1, SmAQP (Schistosoma mansoni, UniProt C4PYI6); experiment: inhibition of radiolabelled lactate uptake in Xenopus oocytes, variable-slope fit; format: cell-based; settings: read-out: Ki (half maximal inhibitory concentration); Ki50
T1 construct: gene AQP1; 304 aa membrane protein
T1 sequence (C4PYI6 1-304): B1 chain

[1] = substrate: C[C@H](O)C(=O)O; experiment: cells, lysate or membranes; format: cell-based, Schistosoma mansoni; settings: 0.1-100 mM lactate; labelled compound; non-injected oocyte values subtracted

Molecule	IC50 (SmAQP) [µM]	Km [1] [mM]
O=C(CCc1ccc(O)cc1)c1c(O)cc(O)cc1O [phloretin]	22	
B1		41 ± 5.8
